Results published in patent publication US20040220260A1, “Use of mono-or di-esters of cinnamic acid or of one of its derivatives and vitamin C, as donor of NO” (L'OREAL S.A., priority 2003, published 2004).

Legend:
[1] = tested on: normal human keratinocytes; assay: cytotoxicity (% diminution of the signal compared with the control); format: cell-based; conditions: % diminution of signal vs control; not very cytotoxic 0-20%, acceptable up to 40%, not retained >40%
From the text: Moreover, the cytotoxicity was expressed as % diminution of the signal compared with the control. A product was considered to be not very cytotoxic from 0-20%, acceptable up to 40% and not retained for values >40%.

[2] = target: T1, inducible NO synthase (NOS2) (Homo sapiens, UniProt P35228); assay: screening test of the modulation of induction of NOS2 by normal human keratinocytes (nitrite/nitrate measurement); format: cell-based; conditions: for % inhibition: normal human keratinocytes, NOS2 induced by cytokines, nitrites and nitrates measured
T1 construct: endogenous in cells; host or cells: normal human keratinocytes (primary culture), induced with interferon-γ and interleukin 1-β
Protocol: The activity of ascorbyl 2-O-cinnamate on the inducible NO synthase was evaluated in the assay described by Heck et al. (J.B.C., vol. 267, No. 30, 21277-21280, 25 Oct. 1992), a screening test of the modulation of induction of NOS2 by normal human keratinocytes. The objective of this test is, briefly, to evaluate the concentration of nitrate and nitrite after stimulation of the NO-synthase 2.
The test is carried out on a culture of normal human keratinocytes, derived from samples taken. The induction of the inducible NO synthase (NOS2) was caused by the addition of a combination of several cytokines to the culture medium. The product tested was applied at three concentrations varying from […] to 1000 μM.
The product tested was classed in one of the following two categories: inhibitor (I) or donor (D) of NO (nitric oxide) according to its capacity to diminish or increase, respectively, the quantity of nitrites and nitrates produced compared to the control signal […].
The following controls were introduced in the test:
A: positive control (induction of the enzyme): mixtures of interferon-γ (1000 u/ml) and interleukin 1-β (100 u/ml)
In order to determine the activity of the test product the quantity of stable NO reaction products (nitrites and nitrates) is measured with the aid of the “nitric calorimetric assay” kit sold by the Boehringer company under catalogue number 1756.28.
Ascorbyl 2-O-cinnamate was tested at concentrations of 100 μM, 500 μM and 1000 μM in ethanol

T1 sequence (P35228 whole entry): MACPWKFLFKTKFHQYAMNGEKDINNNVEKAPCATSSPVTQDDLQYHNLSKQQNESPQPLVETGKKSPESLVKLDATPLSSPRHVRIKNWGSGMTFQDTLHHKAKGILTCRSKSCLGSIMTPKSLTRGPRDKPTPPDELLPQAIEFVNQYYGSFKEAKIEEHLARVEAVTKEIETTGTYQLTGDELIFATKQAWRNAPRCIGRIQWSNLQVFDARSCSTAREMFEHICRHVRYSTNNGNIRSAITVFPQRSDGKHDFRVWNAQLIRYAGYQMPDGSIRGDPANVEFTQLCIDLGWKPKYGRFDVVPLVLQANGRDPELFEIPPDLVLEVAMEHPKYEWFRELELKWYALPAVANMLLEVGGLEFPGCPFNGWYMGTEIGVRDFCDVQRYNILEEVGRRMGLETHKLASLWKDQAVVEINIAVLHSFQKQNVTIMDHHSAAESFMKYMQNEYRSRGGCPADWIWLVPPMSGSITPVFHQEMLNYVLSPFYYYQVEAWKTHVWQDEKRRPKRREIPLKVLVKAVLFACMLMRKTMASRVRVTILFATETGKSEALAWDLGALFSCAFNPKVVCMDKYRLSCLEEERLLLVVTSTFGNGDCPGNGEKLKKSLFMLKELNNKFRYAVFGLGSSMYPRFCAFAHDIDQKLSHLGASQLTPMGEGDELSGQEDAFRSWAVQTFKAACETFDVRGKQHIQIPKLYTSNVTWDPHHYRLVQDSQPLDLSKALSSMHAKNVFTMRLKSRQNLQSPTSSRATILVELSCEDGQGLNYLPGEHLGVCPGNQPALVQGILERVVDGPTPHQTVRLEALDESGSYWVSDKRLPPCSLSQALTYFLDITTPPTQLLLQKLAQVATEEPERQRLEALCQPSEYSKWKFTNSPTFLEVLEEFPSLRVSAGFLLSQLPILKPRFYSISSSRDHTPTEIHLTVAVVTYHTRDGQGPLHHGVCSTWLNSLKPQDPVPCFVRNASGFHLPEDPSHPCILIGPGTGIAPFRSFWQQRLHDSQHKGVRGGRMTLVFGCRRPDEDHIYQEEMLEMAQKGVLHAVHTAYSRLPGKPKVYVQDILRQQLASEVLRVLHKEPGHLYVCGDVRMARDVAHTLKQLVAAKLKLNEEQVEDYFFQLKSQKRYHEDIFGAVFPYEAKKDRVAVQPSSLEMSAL

O=C(/C=C/c1ccccc1)OC1=C(O)[C@@H]([C@@H](O)CO)OC1=O [Ascorbyl 2-O-cinnamate, ascorbyl 2-O-cinnamate]
cytotoxicity [1]: not toxic | % inhibition ([2]; 100 μM in ethanol): 24.79% | % inhibition ([2]; 500 μM in ethanol): 53.74% | % inhibition ([2]; 1000 μM in ethanol): 74.4% | classification as inhibitor (I) or donor (D) of NO ([2]; according to capacity to diminish or increase the quantity of nitrites and nitrates produced compared to the control signal): NO donor effect
